Experiments:
[1] = Pilot study: adverse events and safety observations in study subjects; format: in vivo, human
[2] = Pilot study: sex hormone profile in men after oral daily Kneller's Trione; format: in vivo, human; conditions: for ending testosterone-to-estradiol ratio: day 14, ratio to 1; for change of testosterone-to-estradiol ratio: starting vs ending (14 days); for ESTRADIOL / BIOAVAILABLE TESTOSTERONE / DHT / TOTAL TESTOSTERONE: person
Description: The first study subject was a person who was dosed once per day orally with 25 mg per day of Kneller's Trione.
The second study subject was a person who was dosed once per day orally with 50 mg per day of Kneller's Trione.
The third study subject was a person who was dosed once per day orally with 100 mg per day of Kneller's Trione.

[3] = 25 mg daily oral, 14 days vs baseline
[4] = 50 mg daily oral, 14 days vs baseline
[5] = 100 mg daily oral, 14 days vs baseline

C[C@]12CCC(=O)C[C@@H]1C(=O)C[C@@H]1[C@@H]2CC[C@]2(C)C(=O)CC[C@@H]12 [Kneller's Trione, 5α-androstane-3,6,17-trione]
adverse event ([1]; 750 mg per day oral, subject withdrew from the pilot study): occurrence of a priaprism | liver function, kidney function, blood lipid levels, blood pressure, heart rate, respirations, body temperature ([1]; every subject, frequent intervals, oral daily dosages 25 mg to 750 mg): within medically established normal ranges and values | other adverse events noted by any study subject ([1]; oral daily dosages 25 mg to 750 mg): No other adverse events were noted | increase in plasma bioavailable testosterone [2, 3]: 20% | increase in plasma total testosterone [2, 3]: 13% | reduction in plasma estradiol [2, 3]: 51% | ending testosterone-to-estradiol ratio ([2]; 25 mg daily oral, starting ratio 133.83 to 1): 308.26 | change of testosterone-to-estradiol ratio ([2]; 25 mg daily oral): 130% | change in plasma estradiol [2, 4]: no change | increase in plasma bioavailable testosterone [2, 4]: 21% | increase in plasma total testosterone [2, 4]: 28% | ending testosterone-to-estradiol ratio ([2]; 50 mg daily oral, starting ratio 238.06 to 1): 305.56 | change of testosterone-to-estradiol ratio ([2]; 50 mg daily oral): 28% | increase in plasma bioavailable testosterone [2, 5]: 146% | increase in plasma total testosterone [2, 5]: 93% | reduction in plasma estradiol [2, 5]: 26% | ending testosterone-to-estradiol ratio ([2]; 100 mg daily oral, starting ratio 102.17 to 1): 266.18 | change of testosterone-to-estradiol ratio ([2]; 100 mg daily oral): 161% | added benefit over a dose of 100 mg per day ([2]; 250 mg per day oral): did not seem to offer any added benefit | total testosterone and bioavailable testosterone levels ([2]; 250 mg per day oral): raised total testosterone and bioavailable testosterone levels substantially and safely | added benefit over a dose of 100 mg per day ([2]; 500 mg per day oral): did not seem to offer any added benefit | total testosterone and bioavailable testosterone levels ([2]; 500 mg per day oral): raised total testosterone and bioavailable testosterone levels substantially and safely | added benefits of high dosage ([2]; 750 mg per day oral): no added benefits were seen | plasma testosterone levels in men ([2]; general statement, dose not stated): substantial and significant increases | plasma estradiol levels in men ([2]; general statement, relative to accepted normal limits): no changes outside the accepted normal limits | increase of plasma free testosterone levels ([2]; oral administration, dose not stated): more than 100% | ESTRADIOL ([2]; 25 mg per day oral single dose, DAY 7, baseline 47 pg/mL): 28 pg/mL | BIOAVAILABLE TESTOSTERONE ([2]; 25 mg per day oral single dose, DAY 7, baseline 843 pg/mL): 966 pg/mL | DHT ([2]; 25 mg per day oral single dose, DAY 7, baseline 42 ng/dL): 36 ng/dL | TOTAL TESTOSTERONE ([2]; 25 mg per day oral single dose, DAY 7, baseline (day 0) 6,290 pg/mL): 6,400 pg/mL | ESTRADIOL ([2]; 25 mg per day oral single dose, DAY 14, baseline 47 pg/mL): 23 pg/mL | BIOAVAILABLE TESTOSTERONE ([2]; 25 mg per day oral single dose, DAY 14, baseline 843 pg/mL): 1,014 pg/mL | DHT ([2]; 25 mg per day oral single dose, DAY 14, baseline 42 ng/dL): 49 ng/dL | TOTAL TESTOSTERONE ([2]; 25 mg per day oral single dose, DAY 14, baseline (day 0) 6,290 pg/mL): 7,090 pg/mL | ESTRADIOL ([2]; 50 mg per day oral single dose, DAY 7, baseline 36 pg/mL): 35 pg/mL | BIOAVAILABLE TESTOSTERONE ([2]; 50 mg per day oral single dose, DAY 7, baseline 169.7 pg/mL): 209 pg/mL | DHT ([2]; 50 mg per day oral single dose, DAY 7, baseline 47 ng/dL): 46 ng/dL | TOTAL TESTOSTERONE ([2]; 50 mg per day oral single dose, DAY 7, baseline (day 0) 8,570 pg/mL): 11,000 pg/mL | ESTRADIOL ([2]; 50 mg per day oral single dose, DAY 14, baseline 36 pg/mL): 36 pg/mL | BIOAVAILABLE TESTOSTERONE ([2]; 50 mg per day oral single dose, DAY 14, baseline 169.7 pg/mL): 209 pg/mL | DHT ([2]; 50 mg per day oral single dose, DAY 14, baseline 47 ng/dL): 49 ng/dL | TOTAL TESTOSTERONE ([2]; 50 mg per day oral single dose, DAY 14, baseline (day 0) 8,570 pg/mL): 11,000 pg/mL | ESTRADIOL ([2]; 100 mg per day oral single dose, DAY 7, baseline 46 pg/mL): 44 pg/mL | BIOAVAILABLE TESTOSTERONE ([2]; 100 mg per day oral single dose, DAY 7, baseline 794 pg/mL): 1,432 pg/mL | DHT ([2]; 100 mg per day oral single dose, DAY 7, baseline 35 ng/dL): 48 ng/dL | TOTAL TESTOSTERONE ([2]; 100 mg per day oral single dose, DAY 7, baseline (day 0) 4,700 pg/mL): 7,910 pg/mL | ESTRADIOL ([2]; 100 mg per day oral single dose, DAY 14, baseline 46 pg/mL): 34 pg/mL | BIOAVAILABLE TESTOSTERONE ([2]; 100 mg per day oral single dose, DAY 14, baseline 794 pg/mL): 1,957 pg/mL | DHT ([2]; 100 mg per day oral single dose, DAY 14, baseline 35 ng/dL): 41 ng/dL | TOTAL TESTOSTERONE ([2]; 100 mg per day oral single dose, DAY 14, baseline (day 0) 4,700 pg/mL): 9,050 pg/mL

— patent US20090306031A1, “5alpha-ANDROSTANE-3,6,17-TRIONE (KNELLER'S TRIONE) AND METHODS OF USE THEREFOR” (priority 2009, published 2009)
